Experimental data: patent US9738634B2, “Heterocyclic amide compound and herbicide” (SYNGENTA PARTICIPATIONS AG, priority 2013, dated 2017)

Experiments:
Type in all cases: in vivo
Conditions in all cases: treatment dosage 80 g/ha
black-grass [1] = assay: Test Example 3: weedkilling efficacy through soil treatment; H: black-grass
Summary of the method: (§1)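 Crop and weed responses were judged three weeks after a uniform surface spray of the water-diluted emulsion at the given g/ha rate. Seeds sat beneath about 1.5 cm of sterilized diluvial soil, and boxes stood in a greenhouse at 25 to 30° C.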

Italian ryegrass [2] = assay: Test Example 3: weedkilling efficacy through soil treatment; I: Italian ryegrass
Summary of the method: as §1

common wind-grass [3] = assay: Test Example 3: weedkilling efficacy through soil treatment; J: common wind-grass
Summary of the method: as §1

wheat [4] = assay: Test Example 3: soil treatment, effect on crop; e: wheat
Summary of the method: as §1

rapeseed [5] = assay: Test Example 3: soil treatment, effect on crop; g: rapeseed
Summary of the method: as §1

black-grass [6] = assay: Test Example 4: weedkilling efficacy by foliar treatment; H: black-grass
Summary of the method: (§2)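 Seeds are spot-sown into sterilized diluvial soil and covered with about 1.5 cm of soil. After 14 days' greenhouse growth at 25 to 30° C, plants are sprayed on stems and leaves with diluted emulsion at the stated g/ha rate, then scored at 3 weeks.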

Italian ryegrass [7] = assay: Test Example 4: weedkilling efficacy by foliar treatment; I: Italian ryegrass
Summary of the method: as §2

common wind-grass [8] = assay: Test Example 4: weedkilling efficacy by foliar treatment; J: common wind-grass
Procedure: (§3) Testing of Weedkilling Efficacy by Foliar Treatment
(§4) Sterilized diluvial soil was introduced into 21 cm long, 13 cm wide, 7 cm deep plastic boxes, and seeds of crabgrass, green foxtail, barnyard grass, wild oat, black-grass, Italian ryegrass, common wind-grass, Indian mallow, redroot pigweed, fig-leafed goosefoot, chickweed, catchweed, birds-eye speedwell, corn, soybean, rice, wheat, beet and rapeseed were each spot-sown, and covered with about 1.5 cm of soil, then the plants were grown in a greenhouse at 25 to 30° C.
(§5) After they had grown for 14 days, emulsions of compounds of the present invention prepared according to compounding example 2 were diluted with water to give the specified dosages, and applied uniformly onto the stem and leaf parts with a small sprayer. 3 weeks after the pesticide treatment the effect on each type of plant was investigated on the basis of the assessment criteria of test example 1.
(§6) A: barnyard grass, B: bulrush, C: oval-leafed pondweed, D: crabgrass, E: green foxtail, F: barnyard grass, G: wild oat, H: black-grass, I: Italian ryegrass, J: common wind-grass, K: Indian mallow, L: redroot pigweed, M: fig-leafed goosefoot, N: chickweed, O: catchweed, p: birds-eye speedwell, a: transplanted rice, b: directly sown rice, c: corn, d: soybean, e: wheat, f: beet, g: rapeseed
(§7) Further, pesticide dosage (g/ha) indicates the concentration regulated such that treatment was with only the stated number of grams (g), when calculated per hectare (ha).

wheat [9] = assay: Test Example 4: foliar treatment, effect on crop; e: wheat
Summary of the method: as §2

rapeseed [10] = assay: Test Example 4: foliar treatment, effect on crop; g: rapeseed
Procedure: as §3, §4, §5, §6, §7

CC1=C(c2ccccc2)C(=O)N(C(C)(C)C(=O)Nc2cc(Cl)ccn2)CO1 [B-2-28]
H (black-grass) weedkilling efficacy grade (black-grass [1]): 5 (weed kill ratio 90% or more, (practically complete withering)) | I (Italian ryegrass) weedkilling efficacy grade (Italian ryegrass [2]): 5 (weed kill ratio 90% or more, (practically complete withering)) | J (common wind-grass) weedkilling efficacy grade (common wind-grass [3]): 5 (weed kill ratio 90% or more, (practically complete withering)) | e (wheat) effect on crop grade (wheat [4]): 0 (weed kill ratio 5% or less (practically no effect)) | g (rapeseed) effect on crop grade (rapeseed [5]): 0 (weed kill ratio 5% or less (practically no effect)) | H (black-grass) weedkilling efficacy grade (black-grass [6]): 5 (weed kill ratio 90% or more, (practically complete withering)) | I (Italian ryegrass) weedkilling efficacy grade (Italian ryegrass [7]): 5 (weed kill ratio 90% or more, (practically complete withering)) | J (common wind-grass) weedkilling efficacy grade (common wind-grass [8]): 5 (weed kill ratio 90% or more, (practically complete withering)) | e (wheat) effect on crop grade (wheat [9]): 0 (weed kill ratio 5% or less (practically no effect)) | g (rapeseed) effect on crop grade (rapeseed [10]): 3 (weed kill ratio 40% or more, less than 70%)

CC1=C(c2ccccc2)C(=O)N(C(C)(C)C(=O)Nc2cc(C)ccn2)CO1 [B-2-52]
H (black-grass) weedkilling efficacy grade (black-grass [1]): 4 (weed kill ratio 70% or more, less than 90%) | I (Italian ryegrass) weedkilling efficacy grade (Italian ryegrass [2]): 5 (weed kill ratio 90% or more, (practically complete withering)) | J (common wind-grass) weedkilling efficacy grade (common wind-grass [3]): 5 (weed kill ratio 90% or more, (practically complete withering)) | e (wheat) effect on crop grade (wheat [4]): 0 (weed kill ratio 5% or less (practically no effect)) | g (rapeseed) effect on crop grade (rapeseed [5]): 1 (weed kill ratio 5% or more, less than 20%) | H (black-grass) weedkilling efficacy grade (black-grass [6]): 2 (weed kill ratio 20% or more, less than 40%) | I (Italian ryegrass) weedkilling efficacy grade (Italian ryegrass [7]): 3 (weed kill ratio 40% or more, less than 70%) | J (common wind-grass) weedkilling efficacy grade (common wind-grass [8]): 5 (weed kill ratio 90% or more, (practically complete withering)) | e (wheat) effect on crop grade (wheat [9]): 0 (weed kill ratio 5% or less (practically no effect)) | g (rapeseed) effect on crop grade (rapeseed [10]): 0 (weed kill ratio 5% or less (practically no effect))
